According to PubChem BioAssay AID1918947 (Molecular Pharmacology Branch, DTP, NCI, 2023):

System: A498 complex spheroid viability
Assay: Anticancer human tumor A498 cell line growth inhibition;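 further: spheroids exposed to agents for seven days before readout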;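 on viability, T/C: 100% = DMSO vehicle-treated spheroids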
Conditions: for IC50: curve of first compound; for viability, T/C: stronger effect = lower value
Source text: Multicellular complex tumor spheroid response to LSD1 Inhibitor Iadademstat in combination with a variety of drugs and investigational agents in selected tumor cell lines
The current study was undertaken to assess response to LSD1 inhibitors in combination with standard-of-care drugs and investigational agents in solid tumor complex spheroid models as well as in the K-562 leukemia. Complex spheroids include a stromal component modeled by human endothelial cells (HUVEC) and fibroblasts modeled by human mesenchymal stem cells (MSCs). The concentration ranges selected for each drug and investigational agent were based upon clinically achievable concentrations if the clinical Cmax of the agent was known.
Compounds. The drugs and investigational agents used in this study are listed on Table 1. All of the agents used, including staurosporine (NSC755774) and gemcitabine (NSC613327), were obtained from the Developmental Therapeutics Program, NCI. FDA-approved anticancer drugs are available from the NCI at http://dtp.nci.nih.gov/branches/dscb/oncology_drugset_explanation.html. Drugs and investigational agents were >95% pure by proton nuclear magnetic resonance (NMR) and liquid chromatography/mass spectrometry (LC/MS). Stock solutions were prepared at 400x in DMSO, stored at -70 degrees C, and diluted in fresh medium prior to their use. The final concentration of DMSO in cell culture wells never exceeded 0.25% (v/v). The FDA-approved anticancer drug set is available from the Developmental Therapeutics Program at https://dtp.cancer.gov/organization/dscb/obtaining/available_plates.htm. All drugs and investigational agents were tested over a range starting from a high concentration at or near the clinical Cmax and decreasing in half-log increments. If the clinical Cmax for an agent had not been determined, the highest concentration tested was 10 microM.
Cell Lines. The patient-derived cancer cell (PDC) lines: 292921-168-R-J2-PDC, K24384-001-R-PDC, and 521955-158-R2-J5-PDC pancreatic carcinomas, 556581-035-R-J1 ovarian carcinoma, 324938-238-R-J1-PDC, 855422-203-R-J1-PDC and 883617-216-R-J1-PDC urothelial bladder carcinomas, 743489-274-T-PDC renal cell carcinoma, 138582-R-J1 Merkel cell tumor, K60290-347-R-J1 and K57222-313-R-J1-PDC glioblastomas, 653999-131-R-J2-PDC, LG0703-F948-PDC, and 349418-098-R-PDC non-small cell lung carcinomas, 885512-296-R-J2-PDC, 171881-019-R-J1-PDC breast carcinomas and 186277-243-T-J2-PDC and 233499-124-R-J2-PDC colon carcinomas were obtained from the NCI Patient-Derived Models Repository (PDMR, https://pdmr.cancer.gov). The established cell lines NCI/ADR-RES (RRID:CVCL_14520 and OVCAR-5 (RRID:CVCL_1628) ovarian carcinomas, 786-O (RRID:CVCL_1051) and A498 (RRID:CVCL_A498) renal cell carcinoma, NCI-H211 (ATCC, cat. CRL-5824; RRID:CVCL_1529), NCI-H196 (ATCC, cat. CRL-5823, RRID:CVCL_1509), SW 1271 (ATCC, cat. CRL-2177, RRID:CVCL_1716) and NCI-H1876 (ATCC, cat. CRL-5902, RRID:CVCL_1503) small cell lung carcinomas, MDA-MB-231 (RRID:CVCL_0062) and MDA-MB-468 (RRID:CVCL_0419)breast carcinomas (10-12). Pooled donor human umbilical vein endothelial cells (HUVEC, Lonza, cat. CC-2519) and human mesenchymal stem cells (hMSC, Lonza, cat. PT-2501) were purchased from Lonza (Walkersville, MD).
Cell Culture. All cells were maintained in an incubator at 37 degrees C and 5% CO2 with 95% humidity. The PDC lines were cultured according to standard operating procedures established by the NCI PDMR (https://pdmr.cancer.gov). Briefly all PDCs were thawed and cultured in Matrigel-coated flasks prepared with a working solution of 1X Ham's F-12 nutrient mix, without supplementation (Invitrogen, Waltham, MA, cat. 11765054), 100 U/mL penicillin-streptomycin (Invitrogen, cat. 15140122), and 2.5% Matrigel (Corning Inc., Corning, NY, cat. 354248) for the first three passages. […]

[1] = second compound 0.1 µM, first compound 0.00316 µM
[2] = second compound 0.1 µM, first compound 0.01 µM
[3] = second compound 0.1 µM, first compound 0.0316 µM
[4] = second compound 0.1 µM, first compound 0.1 µM
[5] = second compound 0.316 µM, first compound 0.00316 µM
[6] = second compound 0.316 µM, first compound 0.01 µM
[7] = second compound 0.316 µM, first compound 0.0316 µM
[8] = second compound 0.316 µM, first compound 0.1 µM
[9] = second compound 1 µM, first compound 0.00316 µM
[10] = second compound 1 µM, first compound 0.01 µM
[11] = second compound 1 µM, first compound 0.0316 µM
[12] = second compound 1 µM, first compound 0.1 µM
[13] = second compound 3.16 µM, first compound 0.00316 µM
[14] = second compound 3.16 µM, first compound 0.01 µM
[15] = second compound 3.16 µM, first compound 0.0316 µM
[16] = second compound 3.16 µM, first compound 0.1 µM
[17] = second compound 10 µM, first compound 0.00316 µM
[18] = second compound 10 µM, first compound 0.01 µM
[19] = second compound 10 µM, first compound 0.0316 µM
[20] = second compound 10 µM, first compound 0.1 µM
[21] = second compound 0.1 µM, first compound 0.000316 µM
[22] = second compound 0.1 µM, first compound 0.001 µM
[23] = second compound 0.316 µM, first compound 0.000316 µM
[24] = second compound 0.316 µM, first compound 0.001 µM
[25] = second compound 1 µM, first compound 0.000316 µM
[26] = second compound 1 µM, first compound 0.001 µM
[27] = second compound 3.16 µM, first compound 0.000316 µM
[28] = second compound 3.16 µM, first compound 0.001 µM
[29] = second compound 10 µM, first compound 0.000316 µM
[30] = second compound 10 µM, first compound 0.001 µM

Compound	IC50 (second compound 0.1 µM) [nM]	IC50 (second compound 0.316 µM) [nM]	IC50 (second compound 1 µM) [nM]	IC50 (second compound 3.16 µM) [nM]	IC50 (second compound 10 µM) [nM]	viability, T/C [1] [%]	viability, T/C [2] [%]	viability, T/C [3] [%]	viability, T/C [4] [%]	viability, T/C [5] [%]	viability, T/C [6] [%]	viability, T/C [7] [%]	viability, T/C [8] [%]	viability, T/C [9] [%]	viability, T/C [10] [%]	viability, T/C [11] [%]	viability, T/C [12] [%]	viability, T/C [13] [%]	viability, T/C [14] [%]	viability, T/C [15] [%]	further results
CC1COCCN1c1cc(-c2ccnn2C)c2ccnc(-c3ccn[nH]3)c2n1 (stereo not given) + NC1CCC(NC2CC2c2ccccc2)CC1	21.9	24.7	24.5	22.8	14.1	83.9	76.2	37.5	16.3	89.7	79.6	41.3	19.1	84.8	74.4	42.8	19.3	81.5	71.2	41.4	viability, T/C (second compound 0.1 µM, first compound 0.316 µM): 14%; viability, T/C (second compound 0.1 µM, first compound 1 µM): 9.97%; viability, T/C (second compound 0.316 µM, first compound 0.316 µM): 14.3%; viability, T/C (second compound 0.316 µM, first compound 1 µM): 10.5%; viability, T/C (second compound 1 µM, first compound 0.316 µM): 15%; viability, T/C (second compound 1 µM, first compound 1 µM): 9.26%; viability, T/C [16]: 19.4%; viability, T/C (second compound 3.16 µM, first compound 0.316 µM): 14.8%; viability, T/C (second compound 3.16 µM, first compound 1 µM): 9.59%; viability, T/C [17]: 71.5%; viability, T/C [18]: 58.9%; viability, T/C [19]: 30.7%; viability, T/C [20]: 22.7%; viability, T/C (second compound 10 µM, first compound 0.316 µM): 13.9%; viability, T/C (second compound 10 µM, first compound 1 µM): 9.55%
CC(C)CC(NC(=O)CNC(=O)c1cc(Cl)ccc1Cl)B1OC(=O)CC(CC(=O)O)(C(=O)O)O1 (stereo not given) + NC1CCC(NC2CC2c2ccccc2)CC1	4.58	4.93	4.56	4.16	2.95	64.4	18.1	4.94	3.27	72	14.6	5.43	2.63	65.5	15.4	3.18	1.44	62.4	9.48	2.6	viability, T/C [21]: 86.6%; viability, T/C [22]: 91.6%; viability, T/C [23]: 94.3%; viability, T/C [24]: 102%; viability, T/C [25]: 87.7%; viability, T/C [26]: 96.5%; viability, T/C [27]: 84.3%; viability, T/C [28]: 91.2%; viability, T/C [16]: 0.83%; viability, T/C [29]: 74.9%; viability, T/C [30]: 83.3%; viability, T/C [17]: 47.5%; viability, T/C [18]: 7.21%; viability, T/C [19]: 1.59%; viability, T/C [20]: 0.69%
CC(C)CC(NC(=O)CNC(=O)c1cc(Cl)ccc1Cl)B1OC(=O)CC(CC(=O)O)(C(=O)O)O1 (stereo not given) + NC1CC1c1ccc(-c2cccc(O)c2)cc1	4.26	4.8	4.44	4.29	3.46	60	18.1	5.77	2.14	68.1	17.3	5.27	1.97	62.9	16.8	3.81	1.83	61	16.9	3.71	viability, T/C [21]: 93.7%; viability, T/C [22]: 96.5%; viability, T/C [23]: 106%; viability, T/C [24]: 114%; viability, T/C [25]: 96.6%; viability, T/C [26]: 102%; viability, T/C [27]: 91.8%; viability, T/C [28]: 94.4%; viability, T/C [16]: 1.96%; viability, T/C [29]: 98.4%; viability, T/C [30]: 92.1%; viability, T/C [17]: 51.7%; viability, T/C [18]: 15.6%; viability, T/C [19]: 2.82%; viability, T/C [20]: 1.07%
